The numbers were not newly measured in paper PMC12434536, “Radiosynthesis and Preclinical Evaluation of a Carbon-11 Labeled Phosphodiesterase 7 Inhibitor for PET Neuroimaging” (ACS Medicinal Chemistry Letters, 2025), which cites them from elsewhere.

Structures are written as SMILES. Like-named read-outs stand apart in the source and are kept apart here.

Series [1] has as its system PDE7. Conditions: Figure 1, literature compounds; cited from earlier work.
Series [2] relates to PDE7. Conditions: cited from earlier work.
For a further series, the system named is PDE4. To be noted: Figure 1, literature compounds; cited from earlier work.
For another series, the system named is PDE7A. Conditions: Figure 1, literature compounds; cited from earlier work.
In a further series the test system is PDE4B. To be noted: Figure 1, literature compounds; cited from earlier work.
For a further series, the system named is PDE7A1. Conditions: Figure 1, literature compounds; cited from earlier work.

Turning to `Nc1nc2c(nc(Br)n2C2CCCc3cccc(Br)c32)c(=O)[nH]1` (stereo not drawn) [Compound 3], the half-maximal inhibitory concentration (IC50) with PDE7 [1] was 1210 nM.
Consider `O=C1Nc2c(Cl)ccc(Oc3c(F)cccc3C(=O)N3CC([18F])C3)c2C2(CCCCC2)N1` [[^18F]-P7-2302], for which, in the series with PDE7 [2] (earlier 18F-isotopologue of the same spiro quinazoline structure), the “affinity to PDE7” value is 0.18 nM.
Take `CCOC(=O)c1sc(Nc2nc(N3CCNCC3)c3c(n2)N(Cc2cc(OC)c(OC)c(OC)c2)CC3)nc1C` [Compound 7]: in the series on PDE7 [1], the IC50 is 6 nM.
Take `O=C1Nc2ccc(Cl)c(Cl)c2C2(CCCCC2)N1` [Compound 18]: the IC50 with PDE7 [1] is 14 nM.
For the molecule `O=[N+]([O-])c1ccc(Sc2ccncc2)c(Cl)c1` [Compound 10], the IC50 in the series on PDE7 [1] is 180 nM.
With `COc1ccc(-c2cc3c(n2-c2ccc(S(=O)(=O)Nc4nc(C)cc(C)n4)cc2)CCC(N2CCN(C)CC2)C3)cc1C` (stereo not drawn) [Compound 20], the IC50 in the series on PDE4 is 630 nM; in the series on PDE7A, 14 nM.
`CCn1c(NC(C)C)nc2c(C3CCN(C(C)=O)C3)csc2c1=O` (stereo not drawn) [Compound 6]: the figures for the IC50 with PDE7A and in the series on PDE4B were 15 nM and 1900 nM, respectively.
As for `COc1ccc(C2=NN(C3CCN(C(=O)N4CCOCC4)CC3)C(=O)C3CC=CCC23)cc1Cl` (stereo not drawn) [Compound 21], the results for the half-maximal inhibitory concentration (IC50) in the series with PDE7 [1] and in the series on PDE4 were 23 nM and 2.3 nM, respectively.
On to `Cn1c(-c2ccoc2)nc(=O)c2ccccc21` [Compound 16], for which the IC50 in the series on PDE7A was 96 nM.
As for `O=C1Nc2c(Br)cccc2C2(CCCCC2)N1` [Compound 19], the IC50 in the series on PDE7 [1] was 70 nM.
As to `CCCCOc1nc2c(c(=O)n(C)c(=O)n2C)n1CCCC(=O)Nc1cc(C(C)(C)C)ccc1O` [Compound 5], the results for the IC50 in the series with PDE7A and in the series with PDE4B were 5070 nM and 5430 nM, respectively.
Turning to `O=C1NS(=O)(=O)N(Cc2ccc(Cl)c(Cl)c2)c2ccccc21` [Compound 1], the IC50 with PDE7 [1] is 8000 nM; in the series with PDE4, 19000 nM.
For `COc1ccc(C(=O)CN2c3c(sc4ccccc34)C(=O)NS2(=O)=O)cc1` [Compound 2], in the series on PDE4, the IC50 was 30000 nM.
As to `COc1ccccc1N1CCN(CCCC(=O)Nc2ccc(C(C)(C)C)cc2)CC1` [Compound 22], the IC50 in the series with PDE7A is 27000 nM; in the series on PDE4B, 96000 nM.
Take `O=c1[nH]c(=S)[nH]c2cc(F)c(F)cc12` [Compound 15]: in the series on PDE7A, the half-maximal inhibitory concentration (IC50) is 74 nM.
Regarding `O=C1Nc2c(Cl)ccc(OCC[18F])c2C2(CCCCC2)N1` [[^18F]-MICA-003], the “affinity to PDE7” value in the series on PDE7 [2] (ref Thomae et al.) is reported as 17 nM.
In the case of `COc1cc(COC(=O)c2ccc(-c3ccccc3)o2)cc(OC)c1OC` [Compound 11], the IC50 with PDE7A1 is 5100 nM.
Turning to `CCOC(=O)c1sc(Nc2nc(NCc3ccc(S(N)(=O)=O)cc3)c3c(ncn3CC)n2)nc1C` [Compound 4], the half-inhibitory concentration (IC50) in the series with PDE7 [1] was 11 nM.
